Experimental data reported in PubChem BioAssay AID2060483 (Molecular Pharmacology Branch, DTP, NCI, 2025).

System: K24384-001-R-PDC complex spheroids, viability
Assay: Anticancer human tumor K24384-001-R-PDC patient-derived pancreatic adenocarcinoma cell line growth inhibition [GQUAD]
Settings: for IC50: curve of first compound; for viability, T/C: stronger effect = lower value
Method in brief: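 Multi-cell-type spheroids of tumor cells with HUVEC and mesenchymal stem cells, treated with drug combinations. Concentrations descend in half-log steps from near clinical Cmax, or from 10 microM where Cmax is unknown; viability read-out.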
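Note: spheroids exposed to compounds for seven days.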

Question: Which results are given for `CC[C@@]1(O)C(=O)OCc2c1cc1n(c2=O)Cc2cc3c(CN(C)C)c(O)ccc3nc2-1` + Cc1cnc(CNC(=O)c2c(=O)c3ccc(N4CCCN(C)CC4)nc3n3c2sc2ccccc23)cn1?
Answer: IC50 (second compound 0.0316 µM): > 316 nM; IC50 (second compound 0.1 µM): 214 nM; IC50 (second compound 0.316 µM): 137 nM; IC50 (second compound 1 µM): < 0.999 nM; IC50 (second compound 3.16 µM): < 0.999 nM; IC50 (second compound 10 µM): < 0.999 nM; viability, T/C (second compound 0.0316 µM, first compound 0.000999 µM): 96.3%; viability, T/C (second compound 0.0316 µM, first compound 0.00316 µM): 71.1%; viability, T/C (second compound 0.0316 µM, first compound 0.00999 µM): 105%; viability, T/C (second compound 0.0316 µM, first compound 0.0316 µM): 64.1%; viability, T/C (second compound 0.0316 µM, first compound 0.0999 µM): 58.5%; viability, T/C (second compound 0.0316 µM, first compound 0.316 µM): 44.1%; viability, T/C (second compound 0.1 µM, first compound 0.000999 µM): 64.1%; viability, T/C (second compound 0.1 µM, first compound 0.00316 µM): 69%; viability, T/C (second compound 0.1 µM, first compound 0.00999 µM): 64.8%; viability, T/C (second compound 0.1 µM, first compound 0.0316 µM): 58%; viability, T/C (second compound 0.1 µM, first compound 0.0999 µM): 56.5%; viability, T/C (second compound 0.1 µM, first compound 0.316 µM): 47.1%; viability, T/C (second compound 0.316 µM, first compound 0.000999 µM): 56.1%; viability, T/C (second compound 0.316 µM, first compound 0.00316 µM): 55.2%; viability, T/C (second compound 0.316 µM, first compound 0.00999 µM): 47.8%; viability, T/C (second compound 0.316 µM, first compound 0.0316 µM): 49.9%; viability, T/C (second compound 0.316 µM, first compound 0.0999 µM): 60.3%; viability, T/C (second compound 0.316 µM, first compound 0.316 µM): 39.8%; viability, T/C (second compound 1 µM, first compound 0.000999 µM): 40.7%; viability, T/C (second compound 1 µM, first compound 0.00316 µM): 51.3%; viability, T/C (second compound 1 µM, first compound 0.00999 µM): 36.5%; viability, T/C (second compound 1 µM, first compound 0.0316 µM): 42.7%; viability, T/C (second compound 1 µM, first compound 0.0999 µM): 46%; viability, T/C (second compound 1 µM, first compound 0.316 µM): 37.6%; viability, T/C (second compound 3.16 µM, first compound 0.000999 µM): 34.8%; viability, T/C (second compound 3.16 µM, first compound 0.00316 µM): 39.1%; viability, T/C (second compound 3.16 µM, first compound 0.00999 µM): 34.3%; viability, T/C (second compound 3.16 µM, first compound 0.0316 µM): 39.6%; viability, T/C (second compound 3.16 µM, first compound 0.0999 µM): 40.5%; viability, T/C (second compound 3.16 µM, first compound 0.316 µM): 30%; viability, T/C (second compound 10 µM, first compound 0.000999 µM): 34.1%; viability, T/C (second compound 10 µM, first compound 0.00316 µM): 22.9%; viability, T/C (second compound 10 µM, first compound 0.00999 µM): 36.3%; viability, T/C (second compound 10 µM, first compound 0.0316 µM): 38.4%; viability, T/C (second compound 10 µM, first compound 0.0999 µM): 21.2%; viability, T/C (second compound 10 µM, first compound 0.316 µM): 0.39%
